In test [1] the target is T1, recombinant human PAI-1 (Homo sapiens, UniProt P05121). Briefly: biochemical.
The target in test [2] is T1, recombinant human PAI-1. The experiment in a line: Test Example 2: Human PAI-1 Inhibitory Activity (pH 7.4 HEPES buffer, 10 minutes incubation with two-chain tPA). In kind it is biochemical. On the set-up: purchased Molecular Innovations, Inc. To be noted: read-out: Inhibition Rate of PAI-1 Activity (%). The method, then:
0.1 M HEPES, 0.1 M NaCl. 1 mM EDTA. 0.1 % Polyethylene glycol 8,000 (Hampton Research Corporation),
2 mM Dimethyldecylphoshine oxide [Apo-10] (Fluka Corporation)

[3] abbreviates: read-out: Inhibition Rate of PAI-1 Activity (%).
[4] abbreviates: read-out: Inhibition Rate of PAI Activity (%).

Structures are written as SMILES. Like-named read-outs stand apart in the source and are kept apart here.

T1 sequence (P05121 24-402): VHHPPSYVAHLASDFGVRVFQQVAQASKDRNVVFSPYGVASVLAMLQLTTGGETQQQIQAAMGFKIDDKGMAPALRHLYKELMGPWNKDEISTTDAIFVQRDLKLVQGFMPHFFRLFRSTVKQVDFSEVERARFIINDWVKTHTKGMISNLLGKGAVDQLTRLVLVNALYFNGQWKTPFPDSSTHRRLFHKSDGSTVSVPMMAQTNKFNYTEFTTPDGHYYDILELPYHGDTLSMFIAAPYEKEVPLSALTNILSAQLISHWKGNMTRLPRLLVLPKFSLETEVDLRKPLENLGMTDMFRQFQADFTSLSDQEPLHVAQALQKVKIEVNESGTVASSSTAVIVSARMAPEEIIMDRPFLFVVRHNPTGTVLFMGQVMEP

As a reminder, the inhibition is the percentage by which the read-out fell short of the control. As for `Cc1ccc(N(Cc2ccc(C(C)(C)C)cc2)C(=O)C(=O)O)cc1OCc1ccc(OC(F)(F)F)cc1` [Compound 625], on recombinant human PAI-1 [1] (setting [3]), the inhibition at 5 µM was 59%, the inhibition at 10 µM was determined as 92% and the inhibition at 25 µM amounted to 91%.

For the molecule `CC(C)(C)c1ccc(COc2ccc(Nc3ccc(OC(F)(F)F)cc3)cc2CCC(=O)O)cc1` [Compound 412], at recombinant human PAI-1 [1] (setting [3]), the inhibition at 5 µM was 22%, the inhibition at 10 µM stood at 46% and the inhibition at 25 µM came to 92%.

In the case of `Cc1cc(N(Cc2ccc(C(C)(C)C)cc2)C(=O)C(=O)O)ccc1-c1ccc(OC(F)(F)F)cc1` [Compound 184], on recombinant human PAI-1 [1] (setting [3]), the inhibition at 5 µM came out at 59%, the inhibition at 10 µM is 86% and the inhibition at 25 µM turned out to be 85%.

Regarding `CCCOc1ccc(-c2ccc(OC(F)(F)F)cc2)cc1N(CCCc1ccccc1)C(=O)C(=O)O` [Compound 234], on recombinant human PAI-1 [1] (setting [3]), the inhibition at 5 µM stood at 59%, the inhibition at 10 µM was 83% and the inhibition at 25 µM worked out at 96%.

Take `CC(C)(C)c1ccc(CN(C(=O)C(=O)O)c2ccc(-c3ccc(OC(F)(F)F)cc3)cc2)cc1` [Compound 133]: at recombinant human PAI-1 [1] (setting [3]), the inhibition at 5 µM was found to be 80% and the inhibition at 10 µM amounted to 92%.

Take `CC(C)(C)c1ccc(N(C(=O)C(=O)O)c2ccc(-c3ccc(OC(F)(F)F)cc3)cc2)cc1` [Compound 128]: on recombinant human PAI-1 [1] (setting [3]), the inhibition at 5 µM was determined as 58% and the inhibition at 10 µM was found to be 89%.

For the molecule `CC(C)(C)c1ccc(CN(C(=O)C(=O)O)c2ccc(-c3ccc(C(F)(F)F)cc3)cc2)cc1` [Compound 145], at recombinant human PAI-1 [1] (setting [3]), the inhibition at 5 µM was 7%, the inhibition at 10 µM is 35% and the inhibition at 25 µM was found to be 74%.

With `CC(C)(C)Oc1ccc(N(Cc2ccc(C(C)(C)C)cc2)C(=O)C(=O)O)cc1-c1ccc(OC(F)(F)F)cc1` [Compound 218], on recombinant human PAI-1 [1] (setting [3]), the inhibition at 5 µM was 83% and the inhibition at 10 µM was determined as 78%.

For `CC(C)(C)c1ccc(Oc2ccc(-c3ccc(OC(F)(F)F)cc3)cc2CCC(=O)O)c(CCC(=O)O)c1` [Compound 542], at recombinant human PAI-1 [1] (setting [3]), the inhibition at 0.5 µM is 0%, the inhibition at 1 µM came out at 14% and the inhibition at 5 µM was 67%.

Consider `Cc1ccc(COc2ccc(-c3ccc(OC(F)(F)F)cc3)cc2CCC(=O)O)cc1` [Compound 61], for which, on recombinant human PAI-1 [1] (setting [4]), the inhibition at 5 µM turned out to be 21%, the inhibition at 10 µM was determined as 48% and the inhibition at 25 µM was 97%.

Take `Cc1cc(C)cc(COc2ccc(-c3ccc(OC(F)(F)F)cc3)cc2CCC(=O)O)c1` [Compound 59]: at recombinant human PAI-1 [1] (setting [4]), the inhibition at 5 µM was found to be 25%, the inhibition at 10 µM is 53% and the inhibition at 25 µM turned out to be 77%.

Consider `CC(C)(C)CN(C(=O)C(=O)O)c1ccc(-c2ccc(OC(F)(F)F)cc2)cc1` [Compound 255], for which, at recombinant human PAI-1 [1] (setting [3]), the inhibition at 5 µM worked out at 2%, the inhibition at 10 µM was found to be 8% and the inhibition at 25 µM is 23%.

For `CC(C)(C)c1ccc(COc2ccc(OCc3ccc(OC(F)(F)F)cc3)cc2/C=C/C(=O)O)cc1` [Compound 413], at recombinant human PAI-1 [1] (setting [3]), the inhibition at 5 µM turned out to be 38%, the inhibition at 10 µM was 66% and the inhibition at 25 µM was determined as 84%.

`CC(C)(C)c1ccc(CN(C(=O)C(=O)O)c2ccc(Nc3ccc(OC(F)(F)F)cc3)cc2)cc1` [Compound 626]: at recombinant human PAI-1 [1] (setting [3]), the inhibition at 5 µM turned out to be 42%, the inhibition at 10 µM turned out to be 77% and the inhibition at 25 µM was determined as 97%.

In the case of `CC(C)(C)c1ccc(-c2ccc(Oc3ccc(-c4ccc(OC(F)(F)F)cc4)cc3/C=C/C(=O)O)c(CCC(=O)O)c2)cc1` [Compound 540], at recombinant human PAI-1 [1] (setting [3]), the inhibition at 5 µM was 75%, the inhibition at 10 µM is 91% and the inhibition at 25 µM was determined as 91%.

`CC(C)(C)c1ccc(N(C(=O)C(=O)O)c2ccc(Oc3ccc(OC(F)(F)F)cc3)cc2)cc1` [Compound 165]: at recombinant human PAI-1 [1] (setting [3]), the inhibition at 5 µM was found to be 27%, the inhibition at 10 µM is 64% and the inhibition at 25 µM amounted to 96%.

On to `CC(C)(C)c1ccc(COc2c(/C=C/C(=O)O)cccc2-c2ccc(OC(F)(F)F)cc2)cc1` [Compound 87], for which, on recombinant human PAI-1 [1] (setting [3]), the inhibition at 5 µM came out at 44%, the inhibition at 10 µM was 81% and the inhibition at 25 µM was 96%.

`CCCCc1ccc(CN(C(=O)C(=O)O)c2ccc(-c3ccc(OC(F)(F)F)cc3)cc2)cc1` [Compound 167]: at recombinant human PAI-1 [1] (setting [3]), the inhibition at 5 µM stood at 37%, the inhibition at 10 µM worked out at 75% and the inhibition at 25 µM is 87%.

For `CCCOc1ccc(N(CCCCc2ccccc2)C(=O)C(=O)O)cc1-c1ccc(OC(F)(F)F)cc1` [Compound 240], on recombinant human PAI-1 [1] (setting [3]), the inhibition at 5 µM was found to be 62%, the inhibition at 10 µM is 91% and the inhibition at 25 µM stood at 95%.

For `O=C(O)C(=O)N(CCCCc1ccccc1)c1ccc(N2CCCCC2=O)c(-c2ccc(OC(F)(F)F)cc2)c1` [Compound 250], at recombinant human PAI-1 [1] (setting [3]), the inhibition at 5 µM was 83% and the inhibition at 10 µM was 78%.

As for `O=C(O)C(=O)N(CCCCc1ccccc1)c1ccc(-c2ccc(OC(F)(F)F)cc2)cc1` [Compound 225], on recombinant human PAI-1 [1] (setting [3]), the inhibition at 5 µM turned out to be 27%, the inhibition at 10 µM is 50% and the inhibition at 25 µM was 88%.

In the case of `CC(C)(C)c1ccc(CN(C(=O)C(=O)O)c2ccc(N3CCCCC3=O)c(-c3ccc(OC(F)(F)F)cc3)c2)cc1` [Compound 219], on recombinant human PAI-1 [1] (setting [3]), the inhibition at 5 µM came to 33%, the inhibition at 10 µM was determined as 58% and the inhibition at 25 µM stood at 86%.

For `CC(C)(C)c1ccc(CN(C(=O)C(=O)O)c2cc(-c3ccccc3)cc(C(F)(F)F)c2)cc1` [Compound 140], at recombinant human PAI-1 [1] (setting [3]), the inhibition at 5 µM stood at 6%, the inhibition at 10 µM was determined as 31% and the inhibition at 25 µM is 77%.

Turning to `O=C(O)C(=O)N(Cc1ccc(Cl)cc1)c1ccc(-c2ccc(OC(F)(F)F)cc2)cc1` [Compound 124], at recombinant human PAI-1 [1] (setting [3]), the inhibition at 5 µM turned out to be 22% and the inhibition at 10 µM was 49%.

Regarding `CC(C)(C)c1ccc(N(C(=O)C(=O)O)c2ccccc2-c2ccc(OC(F)(F)F)cc2)cc1` [Compound 157], on recombinant human PAI-1 [1] (setting [3]), the inhibition at 5 µM was found to be 25%, the inhibition at 10 µM is 56% and the inhibition at 25 µM was determined as 96%.

Turning to `Cc1ccc(-c2ccc(N(Cc3ccc(C(C)(C)C)cc3)C(=O)C(=O)O)cc2)cc1` [Compound 141], at recombinant human PAI-1 [1] (setting [3]), the inhibition at 10 µM was 5% and the inhibition at 25 µM was found to be 52%.

With `CC(C)(C)c1ccc(-c2ccc(N(Cc3cccc(OC(F)(F)F)c3)C(=O)C(=O)O)cc2)cc1` [Compound 203], on recombinant human PAI-1 [1] (setting [3]), the inhibition at 5 µM amounted to 69%, the inhibition at 10 µM came to 91% and the inhibition at 25 µM is 97%.

`CC(C)(C)c1ccc(CN(C(=O)C(=O)O)c2ccc(Cl)c(OCc3ccc(OC(F)(F)F)cc3)c2)cc1` [Compound 629]: on recombinant human PAI-1 [1] (setting [3]), the inhibition at 5 µM is 62%, the inhibition at 10 µM amounted to 92% and the inhibition at 25 µM amounted to 88%.

Take `CC(C)(C)c1ccc(CN(C(=O)C(=O)O)c2ccccc2-c2ccc(OC(F)(F)F)cc2)cc1` [Compound 148]: on recombinant human PAI-1 [1] (setting [3]), the inhibition at 5 µM came to 17%, the inhibition at 10 µM worked out at 55% and the inhibition at 25 µM came out at 98%.

Take `CC(C)(C)c1ccc(COc2cc(Oc3ccc(OC(F)(F)F)cc3)ccc2/C=C/C(=O)O)cc1` [Compound 77]: on recombinant human PAI-1 [1] (setting [3]), the inhibition at 5 µM stood at 27%, the inhibition at 10 µM turned out to be 51% and the inhibition at 25 µM was 73%.

On to `CCCCC(C(=O)O)N(Cc1ccc(C(C)(C)C)cc1)c1ccc(-c2ccc(OC(F)(F)F)cc2)cc1` (stereo not drawn) [Compound 642], for which, at recombinant human PAI-1 [2], the inhibition at 0.1 µM stood at 16%, the inhibition at 0.3 µM is 57%, the inhibition at 1 µM amounted to 94% and the inhibition at 3 µM came out at 93%.

`CC(C)(C)c1ccc(Oc2cc(-c3ccc(Cl)cc3)ccc2OCC(=O)O)cc1` [Compound 457]: at recombinant human PAI-1 [2], the inhibition at 0.1 µM amounted to 21%, the inhibition at 0.3 µM came out at 18%, the inhibition at 1 µM came out at 63% and the inhibition at 3 µM is greater than 99%.

For the molecule `CC(C)(C)[C@H]1CC[C@@H](CN(C(=O)C(=O)O)c2ccc(-c3ccc(OC(F)(F)F)cc3)cc2)CC1` [Compound 680], at recombinant human PAI-1 [2], the inhibition at 0.1 µM was 7%, the inhibition at 0.3 µM stood at 9%, the inhibition at 1 µM worked out at 77% and the inhibition at 3 µM is greater than 99%.

Take `CCCCCOc1cc(-c2ccc(OC(F)(F)F)cc2)cc(OCCCCC)c1OCC(=O)O` [Compound 424]: at recombinant human PAI-1 [2], the inhibition at 0.1 µM was 0%, the inhibition at 0.3 µM was 4%, the inhibition at 1 µM came to 38% and the inhibition at 3 µM is greater than 99%.

With `CC(C)c1ccccc1Oc1cc(-c2ccc(OC(F)(F)F)cc2)ccc1OCC(=O)O` [Compound 513], on recombinant human PAI-1 [2], the inhibition at 0.1 µM was 17%, the inhibition at 0.3 µM is 7%, the inhibition at 1 µM is 69% and the inhibition at 3 µM is greater than 99%.

Take `CCCCCOc1cc(-c2cccc(C)c2)ccc1N(CCCCc1ccccc1)C(=O)C(=O)O` [Compound 376]: at recombinant human PAI-1 [2], the inhibition at 0.1 µM stood at 6%, the inhibition at 0.3 µM was 15%, the inhibition at 1 µM was 62% and the inhibition at 3 µM was determined as 95%.

For the molecule `CCCCCCCCCCCCCCCOc1ccc(-c2ccc(OC(F)(F)F)cc2)cc1N(CCCCc1ccccc1)C(=O)C(=O)O` [Compound 375], at recombinant human PAI-1 [2], the inhibition at 0.1 µM came out at 73%, the inhibition at 0.3 µM was determined as 97%, the inhibition at 1 µM was greater than 99% and the inhibition at 3 µM was found to be 79%.

Regarding `CCCCCN(C(=O)C(=O)O)c1cc(-c2ccc(OC(F)(F)F)cc2)ccc1OCCCOc1ccccc1` [Compound 657], on recombinant human PAI-1 [2], the inhibition at 0.1 µM came to 15%, the inhibition at 0.3 µM came to 20%, the inhibition at 1 µM was determined as 99% and the inhibition at 3 µM is greater than 99%.

For the molecule `CC(C)(C)Oc1ccc(Oc2cc(-c3ccc(OC(F)(F)F)cc3)ccc2CCC(=O)O)cc1` [Compound 473], at recombinant human PAI-1 [2], the inhibition at 0.1 µM amounted to 15%, the inhibition at 0.3 µM is 9%, the inhibition at 1 µM was 26% and the inhibition at 3 µM was greater than 99%.

The values above are taken from EP2272817A1, “PAI-1 INHIBITOR” (Institute of Medicinal Molecular Design, Inc., priority 2008, dated 2009).
